In US20160089352A1, “CELL MEMBRANE TRANSPORT PROMOTER FOR SELECTIVE 5-HT1A SEROTONIN RECEPTORS” (NISHIZAKI BIOINFORMATION RESEARCH INSTITUTE, priority 2013, published 2016):

What was measured:
[1] = tested on: mouse under a restraint stress; test: Forced swimming test after restraint stress (depression model); format: in vivo; conditions: restraint-stressed mouse, 0.5, 0.75, 1.0, 5.0 mg/kg orally once per day, total 11 days; FIG. 3
Description: At present, in the study of depression using the behavior of an experiment animal, the efficacy of antidepressant and reaction to stress, which are the both sides of depression, are mainly utilized. In a depression model, a method for inducing depression in an animal by imposing a stress such as solitude, electric shock, forced immersion in water, peripheral environment, temperature change and the like is mainly used. In this Experimental Example, a restraint stress animal model was used. A symptom corresponding to depression was induced by loading a stress by enclosing an experiment animal in a narrow space inhibiting movement, and whether an antidepressive effect was observed when a test compound was administered was examined. Male C57BL/6J mouse at 8-week-old was purchased from Japan SLC Inc. (Shizuoka. Japan). The mouse was enclosed in a 11.5 cm plastic cylinder (diameter 2.7 cm) for 3 hr per day, which was performed for 4 consecutive days to impart a stress.
A forced swimming test is a behavioral test used for screening for an antidepressive effect of a compound. Also in this Experimental Example, a forced swimming test was performed according to a previous report after a restraint stress (Porsolt R D. Le Pichon M, Jalfre M. Depression: a new animal model sensitive, to antidepressant treatments. Nature 1977; 266:730-732.). […]

[2] = tested on: 5-HT1A serotonin receptor; test: 5-HT1A serotonin receptor on cellular membrane in hippocampus and hypothalamus of restraint-stressed mouse after forced swimming test (Western blotting); format: in vivo; conditions: 1 mg/kg orally once per day, total 11 days, hippocampus, hypothalamus, FIG. 4
GSK-3β = test: Phosphorylation of GSK-3β at Ser9 in hypothalamus of mouse under or not under restraint stress (Western blotting); format: in vivo; conditions: total 11 days, FIG. 6
[3] = tested on: 5-HT1A serotonin receptor; test: Analysis of 5-HT receptor trafficking in rat hippocampus and hypothalamus sections (Western blotting of cellular membrane and cytoplasm fractions); format: cell-based; conditions: DCP-LA 100 nM

CCCCCC1CC1CC1CC1CCCCCCCC(=O)O (stereo not drawn) [DCP-LA, 8-[2-(2-Pentyl-cyclopropylmethyl)-cyclopropyl]-octanoic acid]
immobility time in forced swimming test [1]: immobility time decreasing effect in a dose-dependent manner
stress-induced decrease in 5-HT1A serotonin receptor on the cellular membrane [2]: recovered
phosphorylation of GSK-3β (Ser9) (GSK-3β; irrespective of the presence or absence of a restraint stress, mouse hypothalamus, 1 mg/kg orally): promote phosphorylation
stress-induced suppression of phosphorylation of GSK-3β (Ser9) (GSK-3β; mouse under restraint stress, hypothalamus, 1 mg/kg orally once per day): improves suppression of the phosphorylation
expression of 5-HT1A serotonin receptor on the cellular membrane (ratio of cellular membrane to whole cells) ([3]; 20 min, rat hippocampus and hypothalamus sections, compared with 5-HT2A serotonin receptor, FIG. 1): selectively increased
promoting action on cellular membrane trafficking of 5-HT1A serotonin receptor in the presence of inhibitors ([3]; rat hypothalamus section, GF109203X 100 nM, BoTX-A 0.1 U/ml, KN-93 3 μM, FIG. 2): significantly suppressed by BoTX and KN
